Results: PMC4873483 (Experimental Animals, 2015)
Like-named read-outs stand apart in the source and are kept apart here.

What was measured:
[1] = Pharmacokinetic study following repeated s.c. administration of 1-MT; assay type: in vivo, domestic pigs (Sus scrofa domestica)
[2] = Pharmacokinetic study following a single s.c. administration of 1-MT; assay type: in vivo, domestic pigs (Sus scrofa domestica); conditions: for Cmax: means ± standard deviation
[3] = assay type: in vivo, domestic pigs (Sus scrofa domestica)
[4] = mice, within 48 h post dose; cited from earlier work
[5] = repeated oral administration at a saturating dose, rats and dogs; cited from earlier work
[6] = system: plasma proteins; conditions: cited from earlier work
[7] = given by mouth over a time frame of up to 4 weeks; cited from earlier work
[8] = endogenous TRP, 12 h after the final s.c. injection of 1-MT
[9] = endogenous TRP, all four animals
[10] = 12 h after the final of five daily s.c. injections, n=6
[11] = German Landrace, pig, plasma, sc, 1 g
[12] = one-compartment model fitted by numerical simulation to single-dose plasma data
[13] = single s.c. administration of 1 g 1-MT, n=3

In the case of N[C@@H](Cc1c[nH]c2ccccc12)C(=O)O [TRP, tryptophan], the “TRP concentration in kidney, liver, adrenal gland, spleen, and thyroid gland” value [1, 8] is reported as “greater than 40 nmol/g wet tissue weight”, the “TRP concentration in the other tissues” value [1, 8] is reported as “lower than 30 nmol/g wet tissue” and the “maximum TRP concentration in plasma over the 7-day period” value [2, 9] is reported as 37.7 µM. For the same compound, the “minimum TRP concentration in plasma over the 7-day period” value [2, 9] was 13.1 µM and the “average TRP concentration in plasma over the entire 7-day period” value ([2]; endogenous TRP, all four animals, after single s.c. 1-MT or MYR) was 22.8 ± 5.1 µM.
In the case of Cn1cc(C[C@H](N)C(=O)O)c2ccccc21 [1-MT, 1-methyl-L-tryptophan], the daily feed uptake ([3]; five daily s.c. administrations of 1 g 1-MT, not different from MYR (P = 0.97)) is reported as 0.66 ± 0.02 kg, the fever response ([3]; five-day period of 1-MT administration) is reported as “no fever response” and the “health status after a single s.c. injection” value ([3]; single s.c. 1 g 1-MT, visual inspection twice daily) is reported as “No impairment of the health status could be observed”. For the same compound, the excreted via feces [4] was 13%, the excreted via urine [4] was 35% and the tolerability [5] was “well tolerated, with no toxic effects”. For the same compound, the “bound to plasma proteins” value [6] was “less than 15%”, the “steady state of plasma trough concentrations” value ([1]; 1 g 1-MT s.c. daily for five days) was “steady state conditions of trough values were reached after two subcutaneous administrations” and the “1-MT concentrations in peripheral tissues” value ([1]; 12 h after the final of five daily s.c. injections) was 48–152 nmol/g wet tissue weight. The “1-MT concentration in kidney and liver” value [1, 10] was “greater than 100 nmol/g wet tissue weight”, the “1-MT concentration in the different brain areas” value [1, 10] was “lower than 20 nmol/g wet tissue weight” and the concentration at 12 h [1, 11] was 38 µM. The “share of 1-MT accumulated in organs derived from contamination with blood” value ([1]; estimated from plasma 1-MT and organ blood volumes (32-408 µl/g)) was “less than 5%”, the AUC(0-t) [2, 11] was 960 ± 346 µM·h and the Tmax [2, 11] was 12 h. It also gave a concentration at 24 h [2, 11] of 21.1 ± 5.3 µM, a Cmax ([2]; German Landrace, pig, plasma, sc, 1 g, Cmax, maximum concentration in pigs plasma, single s.c. administration of 1 g 1-MT, n=3) of 29.1 ± 8 µM and a half-life ([2]; German Landrace, pig, plasma, sc, 1 g, T1/2, half-life, single s.c. administration of 1 g 1-MT, n=3) of 10.9 ± 2 h. The kabsorption [2, 12] was 0.08 min⁻¹, the kelimination [2, 12] was 0.001 min⁻¹ and the krelease [2, 12] was 0.0018 min⁻¹. For the same compound, the Cmax ([2]; read-out: Cmax, maximum concentration in pigs plasma, single s.c. administration of 1 g 1-MT, n=3) was 29.1 ± 7.97 µM, the “T1/2, half-life” value [2, 13] was 10.93 ± 2.03 h and the “k, first-order kinetic rate constant” value [2, 13] was 0.065 ± 0.011 h⁻¹. For the same compound, the maximum tolerated dose [7] was 1.6 g/day.
